From patent publication US20260327216A1, “SUBSTITUTED OXAZOLONE COMPOUND FOR DECREASING LEVELS OF IKZF I-4 PROTEINS” (BRISTOL-MYERS SQUIBB COMPANY, priority 2023, published 2026)

Legend:
Assay type in all cases: cell-based
IKZF2 Helios = IKZF2 Helios (Homo sapiens, UniProt Q96SW2+Q9UKS7); assay: Human Regulatory T Cell Reprogramming Assay, IKZF2; parameters: endogenous in cells; host or cells: FACS-sorted human CD4+CD127lowCD25+ Treg cells from healthy leukopaks; details: 12-13 days; for Dmax: Regulatory T cell, human, read-out: IKZF2 Helios max % deg. observed; for Dmax / IKZF2 Helios max % deg. observed: human CD4+CD127lowCD25+ Treg cells, stimulated, 100% = complete degradation
IKZF2 Helios, sequence (Q9UKS7 whole entry): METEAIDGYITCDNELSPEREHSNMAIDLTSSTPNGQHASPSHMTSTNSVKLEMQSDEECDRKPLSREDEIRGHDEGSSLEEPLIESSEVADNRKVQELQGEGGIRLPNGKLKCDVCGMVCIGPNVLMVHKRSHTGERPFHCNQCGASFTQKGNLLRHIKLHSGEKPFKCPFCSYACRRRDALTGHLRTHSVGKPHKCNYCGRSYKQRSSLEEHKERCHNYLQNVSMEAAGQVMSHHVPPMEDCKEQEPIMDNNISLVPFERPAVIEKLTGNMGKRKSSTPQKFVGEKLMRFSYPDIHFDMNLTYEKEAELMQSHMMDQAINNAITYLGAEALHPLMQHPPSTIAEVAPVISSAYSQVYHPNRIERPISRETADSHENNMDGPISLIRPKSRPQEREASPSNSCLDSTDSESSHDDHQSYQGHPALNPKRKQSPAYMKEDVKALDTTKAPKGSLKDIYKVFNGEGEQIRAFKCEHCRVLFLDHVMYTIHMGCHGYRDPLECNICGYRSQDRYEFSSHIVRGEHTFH
IKZF2 Helios, sequence (Q96SW2 whole entry): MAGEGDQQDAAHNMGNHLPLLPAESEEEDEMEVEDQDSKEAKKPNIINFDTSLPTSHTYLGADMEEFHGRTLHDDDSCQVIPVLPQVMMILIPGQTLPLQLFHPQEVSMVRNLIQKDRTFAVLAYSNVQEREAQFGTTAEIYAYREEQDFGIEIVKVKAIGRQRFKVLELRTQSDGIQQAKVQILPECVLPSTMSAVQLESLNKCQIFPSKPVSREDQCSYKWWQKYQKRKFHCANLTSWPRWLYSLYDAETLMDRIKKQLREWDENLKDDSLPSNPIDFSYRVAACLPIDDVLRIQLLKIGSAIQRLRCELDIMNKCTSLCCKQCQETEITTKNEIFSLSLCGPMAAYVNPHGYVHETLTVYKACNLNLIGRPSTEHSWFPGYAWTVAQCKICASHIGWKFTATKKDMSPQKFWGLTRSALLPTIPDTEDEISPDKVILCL
IKZF2 Helios, sequence (Q16531 whole entry partner): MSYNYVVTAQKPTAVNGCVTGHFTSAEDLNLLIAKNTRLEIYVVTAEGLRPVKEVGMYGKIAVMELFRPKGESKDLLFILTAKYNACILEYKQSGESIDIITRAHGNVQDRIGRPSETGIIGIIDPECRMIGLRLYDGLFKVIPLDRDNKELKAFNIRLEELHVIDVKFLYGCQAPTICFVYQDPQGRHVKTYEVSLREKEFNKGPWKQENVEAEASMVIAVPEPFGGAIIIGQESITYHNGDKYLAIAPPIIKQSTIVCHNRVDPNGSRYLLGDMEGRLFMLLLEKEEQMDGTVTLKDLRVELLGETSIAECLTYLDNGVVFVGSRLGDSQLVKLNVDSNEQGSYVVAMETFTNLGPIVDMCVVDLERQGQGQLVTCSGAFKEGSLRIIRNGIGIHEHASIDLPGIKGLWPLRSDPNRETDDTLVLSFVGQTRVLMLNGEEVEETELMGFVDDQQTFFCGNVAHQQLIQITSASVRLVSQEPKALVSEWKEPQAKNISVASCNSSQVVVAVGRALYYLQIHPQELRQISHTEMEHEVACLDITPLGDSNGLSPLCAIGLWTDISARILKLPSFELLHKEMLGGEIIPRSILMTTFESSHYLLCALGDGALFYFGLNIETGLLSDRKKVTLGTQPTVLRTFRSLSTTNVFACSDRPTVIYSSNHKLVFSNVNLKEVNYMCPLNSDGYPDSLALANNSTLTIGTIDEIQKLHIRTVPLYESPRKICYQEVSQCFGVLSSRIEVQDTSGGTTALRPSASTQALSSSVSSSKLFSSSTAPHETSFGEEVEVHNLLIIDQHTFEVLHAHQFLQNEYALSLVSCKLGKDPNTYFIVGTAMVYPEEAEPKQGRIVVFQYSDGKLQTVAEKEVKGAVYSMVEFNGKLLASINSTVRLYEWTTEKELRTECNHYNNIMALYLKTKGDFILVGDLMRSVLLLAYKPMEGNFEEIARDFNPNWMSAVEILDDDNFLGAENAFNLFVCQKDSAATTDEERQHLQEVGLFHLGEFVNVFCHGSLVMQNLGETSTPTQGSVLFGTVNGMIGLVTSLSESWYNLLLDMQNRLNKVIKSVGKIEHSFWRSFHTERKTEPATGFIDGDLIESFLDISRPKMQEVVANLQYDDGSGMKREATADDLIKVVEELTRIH
Description: (§1) Human CD4^+ T cells were isolated from fresh healthy leukopaks (Stemcell Technologies) using the RosetteSep Human CD4^+ T cell enrichment cocktail (Stemcell Technologies) and Ficoll density gradient centrifugation. Leukopaks were diluted with an equal volume of phosphate-buffered saline (PBS [Gibco]) supplemented with 2% fetal bovine serum (FBS, VWR Lifescience) and incubated with RosetteSep Human CD4^+ T cell enrichment cocktail for 20 minutes before layering on Ficoll-Paque Plus solution (GE Health Care). The cell-rich interface layer was harvested and washed twice with PBS supplemented with 2% FBS. Regulatory T cells were then isolated manually using the EasySep Human CD4^+CD127^lowCD25^+ Regulatory T cell isolation kit (Stemcell Technologies) according to the manufacturer's instructions. Cells were rested overnight in Roswell Park Memorial Institute (RPMI) 1640 media (Gibco) supplemented with 10% FBS, Pen/Strep (Gibco), MEM-NEAA (Gibco), and sodium pyruvate (Gibco) in a humidified incubator (37° C., 5% CO2). Cells were then stained for CD4 (clone: RPA-T4, Biolegend), CD25 (clone: 2A3, BD Biosciences), and CD127 (clone: hIL-7R-M21, BD Biosciences). CD4^+CD127^lowCD25^+ cells were sorted on a BD FACS Aria Fusion sorter to a purity of 95% or greater. Sorted cells were immediately used or cryopreserved for downstream assays.
(§2) Fresh or cryopreserved FACS-sorted CD4^+CD127^lowCD25^+ Treg cells were cultured at 25,000-50,000 cells/well of 96-well round bottom plates in RPMI 1640 media (Gibco) supplemented with 10% FBS, Pen/Strep (Gibco), MEM-NEAA (Gibco), and sodium pyruvate (Gibco). Cells were stimulated with Treg Xpander beads (Thermo Fisher) at cells-to-beads ratio of 1:4 in the presence of 500 U/mL recombinant human IL-2 (Proleukin). Compounds were added at titrated doses and cells were incubated at 37°C., 5% CO2 for 12-13 days. Recombinant human IL-2 and compound were replenished every 2-3 days during the entire culture duration. On day 12 or 13, cells were restimulated with phorbol 12-myristate 13-acetate (PMA) and ionomycin in the presence of the protein transport inhibitors brefeldin A and monensin (eBioscience Cell Stimulation Cocktail plus protein transport inhibitors, 500×, Catalog number 00-4975-93) before proceeding with flow cytometry staining and analysis.
(§3) For flow cytometry staining, cells were washed twice with flow cytometry staining buffer (Thermo Fisher) and incubated in Human Tru-stain Fc block (Biolegend) for 10 minutes before adding eFluor780 viability dye (Thermo Fisher) and surface marker antibody cocktail for 30 minutes at 4° C. Cells were then fixed and permeabilized by incubation with FoxP3 transcription factor staining buffer (Thermo Fisher) for 30 minutes at 4° C. as per the kit manufacturer's instructions. Cells were washed twice with the Perm/Wash buffer supplied in the kit as per the manufacturer's instructions and incubated overnight at 4° C. with an intracellular antibody cocktail comprised of antibodies specific for the transcription factors shown in Table C. Cells were washed twice with Perm/Wash buffer and resuspended in flow cytometry staining buffer (Thermo Fisher) prior to acquisition. Sample acquisition and analysis was performed using a BD LSRFortessa (BD Biosciences) flow cytometer. Single stain controls for each fluorochrome were prepared using UltraComp eBead Compensation Beads (Thermo Fisher). Data were analyzed using FlowJo version 10 and GraphPad Prism Software.
(§4) Table C-1 lists the maximum observed degradation of the IKZF2 protein and IKZF4 protein as measured in the Human Regulatory T Cell Reprogramming assay. The results in Table C-1 were rounded to two digits. In the Human Regulatory T Cell Reprogramming assay, a value of 100% indicated no detectable protein remaining or complete degradation of the protein; and a value of 0% indicated no detectable degradation of the protein by the test compound.

IKZF4 Eos = target: T1, IKZF4 Eos (Homo sapiens, UniProt Q96SW2+Q9H2S9); assay: Human Regulatory T Cell Reprogramming Assay, IKZF4; details: 12-13 days; for Dmax: Regulatory T cell, human, read-out: IKZF4 Eos max % deg. observed; for Dmax / IKZF4 Eos max % deg. observed: human CD4+CD127lowCD25+ Treg cells, stimulated, 100% = complete degradation
T1 construct: endogenous in cells; host or cells: FACS-sorted human CD4+CD127lowCD25+ Treg cells from healthy leukopaks
T1 sequence (Q9H2S9 whole entry): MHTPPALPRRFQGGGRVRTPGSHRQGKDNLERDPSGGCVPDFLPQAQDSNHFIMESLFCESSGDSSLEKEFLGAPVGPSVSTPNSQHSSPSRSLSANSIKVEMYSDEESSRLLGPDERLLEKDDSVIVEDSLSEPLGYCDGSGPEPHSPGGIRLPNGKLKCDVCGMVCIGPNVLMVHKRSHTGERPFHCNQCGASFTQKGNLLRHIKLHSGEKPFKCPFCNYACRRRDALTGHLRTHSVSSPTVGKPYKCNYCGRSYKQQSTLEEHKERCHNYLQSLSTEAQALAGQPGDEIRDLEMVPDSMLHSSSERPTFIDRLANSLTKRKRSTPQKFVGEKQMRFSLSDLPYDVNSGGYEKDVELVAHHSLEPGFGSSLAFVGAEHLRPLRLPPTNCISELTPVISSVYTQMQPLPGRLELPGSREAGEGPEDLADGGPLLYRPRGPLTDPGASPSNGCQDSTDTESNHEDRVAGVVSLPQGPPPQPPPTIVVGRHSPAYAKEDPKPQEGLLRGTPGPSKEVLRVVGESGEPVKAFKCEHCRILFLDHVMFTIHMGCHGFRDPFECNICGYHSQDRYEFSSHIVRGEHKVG
T1 sequence (Q96SW2 whole entry): as the sequence (Q96SW2 whole entry) above
T1 sequence (Q16531 whole entry partner): as the sequence (Q16531 whole entry partner) above
Description: as §1, §2, §3, §4

IKZF1 Ikaros = IKZF1 Ikaros (Homo sapiens, UniProt Q13422+Q96SW2); assay: Human CD8^+ T Cell Reprogramming Assay, IKZF1; parameters: Cryopreserved healthy donor human peripheral blood mononuclear cells (PBMC); endogenous in cells; host or cells: human PBMC from healthy donors (CD8+ T cells by flow cytometry); details: human PBMC, CD8+ T cells; for Dmax: human, 24 h, read-out: IKZF1 Ikaros Maximum Observed Degradation
IKZF1 Ikaros, sequence (Q13422 whole entry): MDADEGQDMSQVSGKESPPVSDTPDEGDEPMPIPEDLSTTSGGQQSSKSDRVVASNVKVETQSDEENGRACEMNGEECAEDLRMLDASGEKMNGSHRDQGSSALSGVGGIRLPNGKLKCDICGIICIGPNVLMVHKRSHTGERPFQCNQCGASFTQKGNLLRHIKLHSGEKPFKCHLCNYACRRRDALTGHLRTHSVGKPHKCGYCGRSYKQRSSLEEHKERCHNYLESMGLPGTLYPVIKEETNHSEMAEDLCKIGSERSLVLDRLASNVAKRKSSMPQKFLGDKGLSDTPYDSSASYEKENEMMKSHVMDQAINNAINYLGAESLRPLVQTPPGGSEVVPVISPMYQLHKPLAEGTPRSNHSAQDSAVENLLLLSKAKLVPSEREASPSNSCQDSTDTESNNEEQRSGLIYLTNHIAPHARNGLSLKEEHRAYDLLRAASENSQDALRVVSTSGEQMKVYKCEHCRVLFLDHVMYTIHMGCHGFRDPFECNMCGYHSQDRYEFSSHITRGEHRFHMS
IKZF1 Ikaros, sequence (Q96SW2 whole entry): as the sequence (Q96SW2 whole entry) above
IKZF1 Ikaros, sequence (Q16531 whole entry partner): as the sequence (Q16531 whole entry partner) above
Description: Cryopreserved healthy donor human peripheral blood mononuclear cells (PBMC) from healthy donors were thawed and seeded at 500,000 cells/well of 96-well round bottom plates in RPMI 1640 media (Gibco) supplemented with 10% FBS, Pen/Strep (Gibco), MEM-NEAA (Gibco), and sodium pyruvate (Gibco). Cells were treated with titrated doses of compound for 24 hours at 37° C., 5% CO2 before analyzing by flow cytometry.
For flow cytometry staining, cells were washed twice with flow cytometry staining buffer (Thermo Fisher) and incubated in Human Tru-stain Fc block (Biolegend) for 10 minutes before adding eFluor780 viability dye (Thermo Fisher) and surface marker antibody cocktail containing LD-eFluor780, CD3-BUV-395, CD4-BUV805, CD8-FITC, and CD25-BV605 for 30 minutes at 4° C. Cells were then fixed and permeabilized by incubation with permeabilization buffer (eBioscience FoxP3 buffer set 00-5523-00) for 30 minutes at 4° C. as per the kit manufacturer's instructions. Cells were washed twice with the Perm/Wash buffer supplied in the kit as per the manufacturer's instructions and incubated overnight at 4° C. with an intracellular antibody cocktail comprised of antibodies specific for the transcription factors (i.e., Foxp3-BV421, HELIOS-PE-Cy7, EOS-PE, IKAROS-PECF594, AIOLOS-AF647). Cells were washed twice with Perm/Wash buffer and resuspended in flow cytometry staining buffer (Thermo Fisher) prior to acquisition. Sample acquisition and analysis was performed using a BD LSRFortessa (BD Biosciences) flow cytometer. Single-stain controls for each fluorochrome were prepared using UltraComp eBead Compensation Beads (Thermo Fisher). Data were analyzed using FlowJo version 10 and GraphPad Prism Software.
as §4, with “D-1” for “C-1”, “IKZF1” for “IKZF2”, “IKZF3” for “IKZF4”, “CD8^+” for “Regulatory”

[1] = human Treg cells, concentration reducing protein level by 50% vs DMSO

SMILES	Dmax (IKZF2 Helios)	IKZF2 Helios max % deg. observed (IKZF2 Helios)	Dmax (IKZF4 Eos)	IKZF4 Eos max % deg. observed (IKZF4 Eos)	Dmax (IKZF1 Ikaros; 100% = complete degradation)	DC50 (IKZF2 Helios; [1])	DC50 (IKZF4 Eos; [1])	IKZF1 Ikaros Maximum Observed Degradation (IKZF1 Ikaros; 24 hours, 100% = complete degradation, 1440 min)	DC50 (IKZF1 Ikaros; 24 hours, concentration reducing protein level by 50% vs DMSO)
O=C1CCC(n2cc(-c3ccc(Br)cc3F)oc2=O)C(=O)N1 (centres unmarked) [Comparative Compound B, 3-(5-(4-bromo-2-fluorophenyl)-2-oxooxazol-3(2H)-yl)piperidine-2,6-dione]	≤ 6%	6%	≤ 11%	11%	17%	–	–	–	–
O=C1CCC(n2cc(-c3ccccc3)oc2=O)C(=O)N1 (centres unmarked) [Comparative Compound A, 3-(2-oxo-5-phenyloxazol-3(2H)-yl)piperidine-2,6-dione]	–	1%	–	0%	74%	–	–	–	–
Cc1cc(-c2ccc(-c3cn(C4CCC(=O)NC4=O)c(=O)o3)c(F)c2)nc(N)c1OC(F)F (centres unmarked) [Example 1, 3-(5-(4-(6-Amino-5-(difluoromethoxy)-4-methylpyridin-2-yl)-2-fluorophenyl)-2-oxooxazol-3(2H)-yl)piperidine-2,6-dione]	86 to 92%	86-92%	68 to 71%	68-71%	68 to 69%	1.1 to 1.4 nM	0.45 nM	69%	64 to 94 nM
